Experimental data as given in PubChem BioAssay (NCI).
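Test compounds were applied to cells in 96-well plates for 48 hours at 5 doses. GI50 marks 50% less growth. Definition used: TGI = concentration required for complete inhibition of growth.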

Experiments:
Test in all cases: NCI-60 cell line screen, 48 h
EKVX NSCLC = tested on: EKVX NSCLC
SF-295 CNS = tested on: SF-295 CNS
NCI-H460 lung = tested on: NCI-H460 lung
HOP-92 NSCLC = tested on: HOP-92 NSCLC
PC-3 prostate = tested on: PC-3 prostate
NCI-H522 lung = tested on: NCI-H522 lung
OVCAR-4 ovarian = tested on: OVCAR-4 ovarian
COLO 205 colon = tested on: COLO 205 colon
HCC-2998 colon = tested on: HCC-2998 colon
A549 NSCLC = tested on: A549 NSCLC
IGROV1 ovarian = tested on: IGROV1 ovarian
M14 melanoma = tested on: M14 melanoma
HOP-62 NSCLC = tested on: HOP-62 NSCLC
RXF 393 renal = tested on: RXF 393 renal
TK-10 renal = tested on: TK-10 renal
SNB-19 CNS = tested on: SNB-19 CNS
NCI/ADR-RES ovarian = tested on: NCI/ADR-RES ovarian
MDA-MB-435 = tested on: MDA-MB-435
MDA-MB-231 breast = tested on: MDA-MB-231 breast
ACHN renal = tested on: ACHN renal
HCT-15 colon = tested on: HCT-15 colon
UACC-62 melanoma = tested on: UACC-62 melanoma
UO-31 renal = tested on: UO-31 renal
KM12 colon = tested on: KM12 colon
MDA-N = tested on: MDA-N
OVCAR-5 ovarian = tested on: OVCAR-5 ovarian
UACC-257 melanoma = tested on: UACC-257 melanoma
K-562 leukemia = tested on: K-562 leukemia
SK-MEL-5 melanoma = tested on: SK-MEL-5 melanoma
SF-539 CNS = tested on: SF-539 CNS
BT-549 breast = tested on: BT-549 breast
MOLT-4 leukemia = tested on: MOLT-4 leukemia
HT29 colon = tested on: HT29 colon
SW-620 colon = tested on: SW-620 colon
DU-145 prostate = tested on: DU-145 prostate
SK-MEL-2 melanoma = tested on: SK-MEL-2 melanoma
HCT-116 colon = tested on: HCT-116 colon
OVCAR-8 ovarian = tested on: OVCAR-8 ovarian
786-0 renal = tested on: 786-0 renal
SN12C renal = tested on: SN12C renal
MCF7 breast = tested on: MCF7 breast
CCRF-CEM leukemia = tested on: CCRF-CEM leukemia
SR leukemia = tested on: SR leukemia
SF-268 CNS = tested on: SF-268 CNS
SK-OV-3 ovarian = tested on: SK-OV-3 ovarian
HS 578T breast = tested on: HS 578T breast
LOX IMVI melanoma = tested on: LOX IMVI melanoma
SNB-75 CNS = tested on: SNB-75 CNS
CAKI-1 renal = tested on: CAKI-1 renal
OVCAR-3 ovarian = tested on: OVCAR-3 ovarian
U251 CNS = tested on: U251 CNS
NCI-H23 lung = tested on: NCI-H23 lung
SK-MEL-28 melanoma = tested on: SK-MEL-28 melanoma
HL-60(TB) leukemia = tested on: HL-60(TB) leukemia
MALME-3M melanoma = tested on: MALME-3M melanoma
A498 renal = tested on: A498 renal
T-47D breast = tested on: T-47D breast
NCI-H226 lung = tested on: NCI-H226 lung
RPMI-8226 leukemia = tested on: RPMI-8226 leukemia

SMILES: COc1c(C)c(C/C=C(\C)CC/C=C(\C)CCC=C(C)C)c(OC)c(OC)c1OC
- TGI (EKVX NSCLC): > 100 µM
- TGI (SF-295 CNS): > 100 µM
- TGI (NCI-H460 lung): > 100 µM
- TGI (HOP-92 NSCLC): > 100 µM
- TGI (PC-3 prostate): > 100 µM
- TGI (NCI-H522 lung): > 100 µM
- TGI (OVCAR-4 ovarian): > 100 µM
- TGI (COLO 205 colon): > 100 µM
- TGI (HCC-2998 colon): > 100 µM
- TGI (A549 NSCLC): > 100 µM
- TGI (IGROV1 ovarian): > 100 µM
- TGI (M14 melanoma): > 100 µM
- TGI (HOP-62 NSCLC): > 100 µM
- TGI (RXF 393 renal): > 100 µM
- TGI (TK-10 renal): > 100 µM
- TGI (SNB-19 CNS): > 100 µM
- TGI (NCI/ADR-RES ovarian): > 100 µM
- TGI (MDA-MB-435): > 100 µM
- TGI (MDA-MB-231 breast): > 100 µM
- TGI (ACHN renal): > 100 µM
- TGI (HCT-15 colon): > 100 µM
- TGI (UACC-62 melanoma): > 100 µM
- TGI (UO-31 renal): > 100 µM
- TGI (KM12 colon): > 100 µM
- TGI (MDA-N): > 100 µM
- TGI (OVCAR-5 ovarian): > 100 µM
- TGI (UACC-257 melanoma): > 100 µM
- TGI (K-562 leukemia): > 100 µM
- TGI (SK-MEL-5 melanoma): > 100 µM
- TGI (SF-539 CNS): > 100 µM
- TGI (BT-549 breast): > 100 µM
- TGI (MOLT-4 leukemia): > 100 µM
- TGI (HT29 colon): > 100 µM
- TGI (SW-620 colon): > 100 µM
- TGI (DU-145 prostate): > 100 µM
- TGI (SK-MEL-2 melanoma): > 100 µM
- TGI (HCT-116 colon): > 100 µM
- TGI (OVCAR-8 ovarian): > 100 µM
- TGI (786-0 renal): > 100 µM
- TGI (SN12C renal): > 100 µM
- TGI (MCF7 breast): > 100 µM
- TGI (CCRF-CEM leukemia): > 100 µM
- TGI (SR leukemia): > 100 µM
- TGI (SF-268 CNS): > 100 µM
- TGI (SK-OV-3 ovarian): > 100 µM
- TGI (HS 578T breast): > 100 µM
- TGI (LOX IMVI melanoma): > 100 µM
- TGI (SNB-75 CNS): > 100 µM
- TGI (CAKI-1 renal): > 100 µM
- TGI (OVCAR-3 ovarian): > 100 µM
- TGI (U251 CNS): > 100 µM
- TGI (NCI-H23 lung): > 100 µM

SMILES: Cc1cc(Cl)ccc1NS(=O)(=O)c1ccc(-c2cnc(C3CC3)o2)cc1
- GI50 (EKVX NSCLC): 0.411 µM
- TGI (EKVX NSCLC): 28.5 µM
- GI50 (SK-MEL-28 melanoma): 4.9 µM
- TGI (SK-MEL-28 melanoma): 22.8 µM
- GI50 (SF-295 CNS): 0.0799 µM
- TGI (SF-295 CNS): 2.02 µM
- GI50 (NCI-H460 lung): 0.37 µM
- TGI (NCI-H460 lung): 12.4 µM
- GI50 (HOP-92 NSCLC): 1.05 µM
- TGI (HOP-92 NSCLC): 13 µM
- GI50 (PC-3 prostate): 0.254 µM
- TGI (PC-3 prostate): 13.8 µM
- GI50 (NCI-H522 lung): 0.251 µM
- TGI (NCI-H522 lung): 4.34 µM
- GI50 (OVCAR-4 ovarian): 2.98 µM
- TGI (OVCAR-4 ovarian): 20.6 µM
- GI50 (COLO 205 colon): 0.36 µM
- TGI (COLO 205 colon): 4.44 µM
- GI50 (HCC-2998 colon): 0.463 µM
- TGI (HCC-2998 colon): 12 µM
- GI50 (A549 NSCLC): 0.372 µM
- TGI (A549 NSCLC): 17 µM
- GI50 (HL-60(TB) leukemia): 0.202 µM
- TGI (HL-60(TB) leukemia): 2.89 µM
- GI50 (IGROV1 ovarian): 0.365 µM
- TGI (IGROV1 ovarian): 15.5 µM
- GI50 (M14 melanoma): 0.254 µM
- TGI (M14 melanoma): 15.3 µM
- GI50 (HOP-62 NSCLC): 0.556 µM
- TGI (HOP-62 NSCLC): 21.5 µM
- GI50 (RXF 393 renal): 0.268 µM
- TGI (RXF 393 renal): 17.7 µM
- GI50 (TK-10 renal): 11.8 µM
- TGI (TK-10 renal): 31.1 µM
- GI50 (SNB-19 CNS): 0.395 µM
- TGI (SNB-19 CNS): 18.7 µM
- GI50 (NCI/ADR-RES ovarian): 0.178 µM
- TGI (NCI/ADR-RES ovarian): 13 µM
- GI50 (MDA-MB-435): 0.0838 µM
- TGI (MDA-MB-435): 15.5 µM
- GI50 (MDA-MB-231 breast): 0.94 µM
- TGI (MDA-MB-231 breast): 20 µM
- GI50 (ACHN renal): 0.649 µM
- TGI (ACHN renal): 20.5 µM
- GI50 (HCT-15 colon): 0.0908 µM
- TGI (HCT-15 colon): 12.2 µM
- GI50 (UACC-62 melanoma): 0.169 µM
- TGI (UACC-62 melanoma): 17.1 µM
- GI50 (UO-31 renal): 0.619 µM
- TGI (UO-31 renal): 16.9 µM
- GI50 (KM12 colon): 0.211 µM
- TGI (KM12 colon): 15.3 µM
- GI50 (OVCAR-5 ovarian): 0.572 µM
- TGI (OVCAR-5 ovarian): 17.2 µM
- GI50 (UACC-257 melanoma): 3.85 µM
- TGI (UACC-257 melanoma): 25.8 µM
- GI50 (K-562 leukemia): 0.0723 µM
- TGI (K-562 leukemia): > 100 µM
- GI50 (SK-MEL-5 melanoma): 0.517 µM
- TGI (SK-MEL-5 melanoma): 6.88 µM
- GI50 (SF-539 CNS): 0.215 µM
- TGI (SF-539 CNS): 2.51 µM
- GI50 (BT-549 breast): 1.32 µM
- TGI (BT-549 breast): 15.5 µM
- GI50 (MALME-3M melanoma): 0.567 µM
- TGI (MALME-3M melanoma): 26.7 µM
- GI50 (MOLT-4 leukemia): 0.405 µM
- TGI (MOLT-4 leukemia): > 44.2 µM
- GI50 (A498 renal): 0.0915 µM
- TGI (A498 renal): 0.841 µM
- GI50 (HT29 colon): 0.267 µM
- TGI (HT29 colon): 11.8 µM
- GI50 (SW-620 colon): 0.198 µM
- TGI (SW-620 colon): 16.1 µM
- GI50 (DU-145 prostate): 0.395 µM
- TGI (DU-145 prostate): 17.9 µM
- GI50 (SK-MEL-2 melanoma): 0.677 µM
- TGI (SK-MEL-2 melanoma): 22 µM
- GI50 (HCT-116 colon): 0.3 µM
- TGI (HCT-116 colon): 11.9 µM
- GI50 (OVCAR-8 ovarian): 0.427 µM
- TGI (OVCAR-8 ovarian): 15.2 µM
- GI50 (786-0 renal): 0.561 µM
- TGI (786-0 renal): 17.5 µM
- GI50 (T-47D breast): 0.369 µM
- TGI (T-47D breast): 42.4 µM
- GI50 (SN12C renal): 0.578 µM
- TGI (SN12C renal): 16.5 µM
- GI50 (MCF7 breast): 0.0619 µM
- TGI (MCF7 breast): 14.7 µM
- GI50 (CCRF-CEM leukemia): 0.239 µM
- TGI (CCRF-CEM leukemia): 38.3 µM
- GI50 (SR leukemia): 0.0967 µM
- TGI (SR leukemia): 28.4 µM
- GI50 (SF-268 CNS): 2.98 µM
- TGI (SF-268 CNS): 23 µM
- GI50 (SK-OV-3 ovarian): 4.32 µM
- TGI (SK-OV-3 ovarian): 26.2 µM
- GI50 (HS 578T breast): 0.275 µM
- TGI (HS 578T breast): 22.2 µM
- GI50 (NCI-H226 lung): 1.04 µM
- TGI (NCI-H226 lung): 16.5 µM
- GI50 (RPMI-8226 leukemia): 0.343 µM
- TGI (RPMI-8226 leukemia): 23.1 µM
- GI50 (LOX IMVI melanoma): 0.622 µM
- TGI (LOX IMVI melanoma): 14.2 µM
- GI50 (SNB-75 CNS): 0.153 µM
- TGI (SNB-75 CNS): 0.667 µM
- GI50 (CAKI-1 renal): 0.127 µM
- TGI (CAKI-1 renal): 17.6 µM
- GI50 (OVCAR-3 ovarian): 0.186 µM
- TGI (OVCAR-3 ovarian): 5.41 µM
- GI50 (U251 CNS): 0.384 µM
- TGI (U251 CNS): 15.7 µM
- GI50 (NCI-H23 lung): 0.556 µM
- TGI (NCI-H23 lung): 17.5 µM
